Experimental data as given in patent publication US20220041647A1, “ESTRA-1,3,5(10)-TRIENE COMPOUNDS CONDENSED IN POSITION 16(17) WITH A PYRAZOLE RING AS INHIBITORS OF 17-HSD1” (FORENDO PHARMA LTD, priority 2018, published 2022).

How the values were obtained:
[1] = Metabolic stability assay, human hepatocyte incubations; assay type: in vitro ADME; conditions: compound 1 μM, human hepatocytes, 0-60 min at 37° C.; read-out: Human hepatocytes MetStab T½ min
How it was run: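 Compounds at 1 μM (1% DMSO final) incubated with human hepatocytes at 37 °C for 0, 10, 20, 40 and 60 min. Parent measured by LC-MS/MS as % remaining versus time zero; T1/2 obtained by regression of the disappearance curve.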

[2] = biological target: T1, recombinant human 17β-HSD2 (Homo sapiens, UniProt P37059); experiment: Inhibition of recombinant human 17β-HSD2 (estradiol to estrone conversion, HPLC/radioactivity); assay type: biochemical; conditions: compound 1 μM; 50 nM estradiol, 1 mM NADH, 30 min RT
T1 construct: made in house; host or cells: Sd9 (Sf9) insect cells, baculovirus (Bac to Bac Expression System)
T1 sequence (P37059 1-387): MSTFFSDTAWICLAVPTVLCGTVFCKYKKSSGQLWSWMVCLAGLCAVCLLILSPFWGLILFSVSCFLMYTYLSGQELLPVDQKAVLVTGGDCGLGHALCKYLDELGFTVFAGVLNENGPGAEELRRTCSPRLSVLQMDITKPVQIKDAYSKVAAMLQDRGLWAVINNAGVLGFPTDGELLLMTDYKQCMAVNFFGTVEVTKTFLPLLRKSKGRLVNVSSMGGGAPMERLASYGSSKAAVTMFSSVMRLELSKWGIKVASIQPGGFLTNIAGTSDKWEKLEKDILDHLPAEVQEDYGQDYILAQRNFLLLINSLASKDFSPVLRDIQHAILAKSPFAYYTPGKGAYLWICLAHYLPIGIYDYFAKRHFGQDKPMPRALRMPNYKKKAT
How it was run: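 Membrane extract of Sf9 cells expressing recombinant human 17β-HSD2 (4 μg/ml), in 20 mM KH2PO4 pH 8.5 with 50 nM ^3H-spiked estradiol and 1 mM NADH, 30 min at RT, 1% DMSO. Compound at 1 μM or 0.1 μM; estrone formation by HPLC radioactivity, % inhibition relative to uninhibited conversion.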

[3] = biological target: T2, recombinant human 17β-HSD1 (Homo sapiens, UniProt P14061); experiment: Inhibition of recombinant human 17β-HSD1 (estrone to estradiol conversion, HPLC/radioactivity); assay type: biochemical; conditions: compound 100 nM; 30 nM estrone, 1 mM NADPH, 30 min RT
T2 construct: made in house; host or cells: Sd9 (Sf9) insect cells, baculovirus (Bac to Bac Expression System)
T2 sequence (P14061 1-328): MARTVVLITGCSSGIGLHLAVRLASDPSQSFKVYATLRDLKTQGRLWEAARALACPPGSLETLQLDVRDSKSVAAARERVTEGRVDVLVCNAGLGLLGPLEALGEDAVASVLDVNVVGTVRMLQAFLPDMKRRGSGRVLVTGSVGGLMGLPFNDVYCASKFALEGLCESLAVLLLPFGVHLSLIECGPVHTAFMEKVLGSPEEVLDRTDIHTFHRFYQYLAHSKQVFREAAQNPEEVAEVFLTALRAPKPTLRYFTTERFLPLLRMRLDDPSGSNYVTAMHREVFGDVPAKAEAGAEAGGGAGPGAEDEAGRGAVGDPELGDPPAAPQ
How it was run: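 Microsomal human 17β-HSD1 from Sf9 baculovirus (1 μg/ml) was incubated 30 min at RT in 20 mM KH2PO4 pH 7.4 with 30 nM ^3H-estrone, 1 mM NADPH and inhibitor at 1 μM or 0.1 μM (1% DMSO). Estrone and estradiol were separated by HPLC with radioactivity detection. % inhibition = 100 − % conversion relative to uninhibited control.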

SMILES | half-life at 1 μM [1] | inhibition at 1 µM [2] | inhibition at 0.1 µM [3]
Cc1ccnc(NC(=O)CC[C@@H]2c3c[nH]nc3[C@@]3(C)CCC4c5ccc(F)cc5CCC4C23)c1 (stereo partly drawn) [Compound 93, 3-((8aS,12S)-4-fluoro-8a-methyl-1,2,6b,7,8,8a,10,12,12a,12b-decahydronaphtho[2′,1′:4,5]indeno[1,2-c]pyrazol-12-yl)-N-(4-methylpyridin-2-yl)-propanamide] | 1.1 h | 4% | 79%
C[C@]12CCC3c4ccc(F)cc4CCC3C1[C@H](CCC(=O)Nc1ccc(N3CCOCC3)cn1)c1c[nH]nc12 (stereo partly drawn) [Compound 96, 3-((8aS,12S)-4-fluoro-8a-methyl-1,2,6b,7,8,8a,10,12,12a,12b-decahydronaphtho[2′,1′:4,5]indeno[1,2-c]pyrazol-12-yl)-N-(5-morpholinopyridin-2-yl)propanamide] | 1.25 h | 5% | 74%
C[C@]12CCC3c4ccc(F)cc4CCC3C1[C@H](CCC(=O)Nc1ccc(F)cn1)c1c[nH]nc12 (stereo partly drawn) [Compound 99, 3-((8aS,12S)-4-fluoro-8a-methyl-1,2,6b,7,8,8a,10,12,12a,12b-decahydronaphtho[2′,1′:4,5]indeno[1,2-c]pyrazol-12-yl)-N-(5-fluoropyridin-2-yl)propanamide] | 1.62 h | 4% | 84%
C[C@]12CCC3c4ccc(Cl)cc4CCC3C1[C@H](CCC(=O)Nc1cc3c([nH]c1=O)CCCC3)c1c[nH]nc12 (stereo partly drawn) [Compound 123, 3-((8aS,12S)-4-chloro-8a-methyl-1,2,6b,7,8,8a,10,12,12a,12b-decahydronaphtho[2′,1′:4,5]indeno[1,2-c]pyrazol-12-yl)-N-(2-oxo-1,2,5,6,7,8-hexahydroquinolin-3-yl) propanamide] | 2.58 h | 8% | 87%
CN(C)C(=O)c1ccc(NC(=O)CC[C@@H]2c3c[nH]nc3[C@@]3(C)CCC4c5ccc(Cl)cc5CCC4C23)nc1 (stereo partly drawn) [Compound 126, 6-(3-((8aS,12S)-4-chloro-8a-methyl-1,2,6b,7,8,8a,10,12,12a,12b-decahydronaphtho[2′,1′:4,5]indeno[1,2-c]pyrazol-12-yl)propanamido)-N,N-dimethylnicotinamide] | 2.45 h | 12% | 89%
CC(C)c1ccc(NC(=O)CC[C@@H]2c3c[nH]nc3[C@@]3(C)CCC4c5ccccc5CCC4C23)nc1 (stereo partly drawn) [Compound 138, N-(5-isopropylpyridin-2-yl)-3-((8aS,12S)-8a-methyl-1,2,6b,7,8,8a,10,12,12a,12b-decahydronaphtho[2′,1′:4,5]indeno[1,2-c]pyrazol-12-yl)propanamide] | 0.85 h | 7% | 94%
COc1ccc(NC(=O)CC[C@@H]2c3c[nH]nc3[C@@]3(C)CCC4c5ccccc5CCC4C23)nc1 (stereo partly drawn) [Compound 141, N-(5-methoxypyridin-2-yl)-3-((8aS,12S)-8a-methyl-1,2,6b,7,8,8a,10,12,12a,12b-decahydronaphtho[2′,1′:4,5]indeno[1,2-c]pyrazol-12-yl)propanamide] | 0.75 h | -1% | 93%
COc1ccc(NC(=O)CC[C@@H]2c3c[nH]nc3[C@@]3(C)CCC4c5ccccc5CCC4C23)nn1 (stereo partly drawn) [Compound 156, N-(6-methoxypyridazin-3-yl)-3-((8aS,12S)-8a-methyl-1,2,6b,7,8,8a,10,12,12a,12b-decahydronaphtho[2′,1′:4,5]indeno[1,2-c]pyrazol-12-yl)propanamide] | 1.55 h | -3% | 81%
C[C@]12CCC3c4ccccc4CCC3C1[C@H](CCC(=O)Nc1ccc(F)cn1)c1c[nH]nc12 (stereo partly drawn) [Compound 159, N-(5-fluoropyridin-2-yl)-3-((8aS,12S)-8a-methyl-1,2,6b,7,8,8a,10,12,12a,12b-decahydronaphtho[2′,1′:4,5]indeno[1,2-c]pyrazol-12-yl)propanamide] | 1.28 h | 3% | 90%
C[C@]12CCC3c4ccccc4CCC3C1[C@H](CCC(=O)Nc1cc(F)ccn1)c1c[nH]nc12 (stereo partly drawn) [Compound 162, N-(4-fluoropyridin-2-yl)-3-((8aS,12S)-8a-methyl-1,2,6b,7,8,8a,10,12,12a,12b-decahydronaphtho[2′,1′:4,5]indeno[1,2-c]pyrazol-12-yl)propanamide] | 1.38 h | 9% | 91%
COc1ccnc(NC(=O)CC[C@@H]2c3c[nH]nc3[C@@]3(C)CCC4c5ccccc5CCC4C23)c1 (stereo partly drawn) [Compound 165, N-(4-methoxypyridin-2-yl)-3-((8aS,12S)-8a-methyl-1,2,6b,7,8,8a,10,12,12a,12b-decahydronaphtho[2′1′:4,5]indeno[1,2-c]pyrazol-12-yl)propanamide] | 0.733 h | -2% | 85%
Cc1ccnc(NC(=O)CC[C@@H]2c3c[nH]nc3[C@@]3(C)CCC4c5ccccc5CCC4C23)c1 (stereo partly drawn) [Compound 168, 3-((8aS,12S)-8a-methyl-1,2,6b,7,8,8a,10,12,12a,12b-decahydronaphtho[2′,1′:4,5]indeno[1,2-c]pyrazol-12-yl)-N-(4-methylpyridin-2-yl)propanamide] | 1.13 h | 5% | 90%
C[C@]12CCC3c4ccccc4CCC3C1[C@H](CCC(=O)Nc1ccccn1)c1c[nH]nc12 (stereo partly drawn) [Compound 171, 3-((8aS,12S)-8a-methyl-1,2,6b,7,8,8a,10,12,12a,12b-decahydronaphtho[2′,1′:4,5]indeno[1,2-c]pyrazol-12-yl)-N-(pyridin-2-yl)propanamide] | 1.22 h | -1% | 89%
C[C@]12CCC3c4ccccc4CCC3C1[C@H](CCC(=O)Nc1cnccn1)c1c[nH]nc12 (stereo partly drawn) [Compound 189, 3-((8aS,12S)-8a-methyl-1,2,6b,7,8,8a,10,12,12a,12b-decahydronaphtho[2′,1′:4,5]indeno[1,2-c]pyrazol-12-yl)-N-(pyrazin-2-yl)propanamide] | 0.5 h | 9% | 90%
C[C@]12CCC3c4cccc(F)c4CCC3C1[C@H](CCC(=O)NC1CCCCC1)c1c[nH]nc12 (stereo partly drawn) [Compound 207, N-cyclohexyl-3-((8aS,12S)-3-fluoro-8a-methyl-1,2,6b,7,8,8a,10,12,12a,12b-decahydronaphtho[2′,1′:4,5]indeno[1,2-c]pyrazol-12-yl)propanamide] | 0.3 h | 4% | 95%
C[C@]12CCC3c4cccc(F)c4CCC3C1[C@H](CCC(=O)N1CCCC1)c1c[nH]nc12 (stereo partly drawn) [Compound 210, 3-((8aS,12S)-3-fluoro-8a-methyl-1,2,6b,7,8,8a,10,12,12a,12b-decahydronaphtho[2′,1′:4,5]indeno[1,2-c]pyrazol-12-yl)-1-(pyrrolidin-1-yl)propan-1-one] | 0.183 h | 0% | 94%
CCN(CC)C(=O)CC[C@@H]1c2c[nH]nc2[C@@]2(C)CCC3c4cccc(F)c4CCC3C12 (stereo partly drawn) [Compound 216, N,N-diethyl-3-((8aS,12S)-3-fluoro-8a-methyl-1,2,6b,7,8,8a,10,12,12a,12b-decahydronaphtho[2′,1′:4,5]indeno[1,2-c]pyrazol-12-yl)propanamide] | 0.133 h | 6% | 93%
